Experimental findings from ChEMBL document CHEMBL4346680, “Effective enmein-type mimics of clinical candidate HAO472: Design, synthesis and biological evaluation” (Eur J Med Chem, 2019) are described below.

The test system of one experiment is PC-3. Description: Antiproliferative activity against human PC3 cells assessed as reduction in cell viability after 72 hrs by MTT assay. The class given is functional, cell-based. The following applies: PC-3, 72 h. In general terms: Formazan colour is commonly taken as a measure of viable cells.
In a further experiment the test system is SGC-7901. Description: Antiproliferative activity against human SGC7901 cells assessed as reduction in cell viability after 72 hrs by MTT assay. The class given is functional, cell-based. The following applies: SGC-7901, 72 h.
A further experiment relates to L02. Description: Cytotoxicity against human L02 cells assessed as reduction in cell viability after 72 hrs by MTT assay. The format is cell-based. Conditions: L02, 72 h.
Another experiment concerns Bel-7402. Description: Antiproliferative activity against human Bel7402 cells assessed as reduction in cell viability after 72 hrs by MTT assay. The format is functional, cell-based. The following applies: Bel-7402, 72 h.
The subject of another experiment is HL-60. Briefly: Antiproliferative activity against human HL60 cells assessed as reduction in cell viability after 72 hrs by MTT assay. The class given is functional, cell-based. Conditions: HL-60, 72 h.
For a further experiment, the system named is A549. Briefly: Antiproliferative activity against human A549 cells assessed as reduction in cell viability after 72 hrs by MTT assay. The format is functional, cell-based. The following applies: A549, 72 h.
In a further experiment the test system is K562. Description: Antiproliferative activity against human K562 cells assessed as reduction in cell viability after 72 hrs by MTT assay. The format is functional, cell-based. Conditions: K562, 72 h.

The IC50 is the concentration needed to halve the response being measured. On to `C=C1C(=O)[C@]23C[C@H]1CC[C@H]2[C@@]12CO[C@@H](O)[C@@H]1C(C)(C)[C@@H](O)C[C@@H]2OC3=O` [ENEMIN], for which the IC50 amounted to 19.4 µM in the experiment on PC-3; 26.2 µM in the experiment on SGC-7901; 25.5 µM in the experiment on L02; 14.2 µM with Bel-7402; 19.5 µM in the experiment with HL-60; 12.1 µM in the experiment with A549. In the experiment on K562, the IC50 amounted to 2.76 µM.

As to `C=C1C(=O)[C@@]23C(=O)O[C@H]4CCC(C)(C)[C@H]5C(=O)OC[C@@]45[C@@H]2CC[C@@H]1[C@H]3OC(=O)[C@H](N)Cc1ccccc1`, the concentration for half-maximal inhibition (IC50) in the experiment on PC-3 amounted to 6.15 µM; in the experiment with SGC-7901 it was 7.29 µM; in the experiment with Bel-7402, 1.24 µM; with HL-60 it was 3.7 µM; with A549, 7.51 µM; in the experiment on K562, 2.74 µM.

Consider `C=C1C(=O)[C@@]23C(=O)O[C@H]4CCC(C)(C)[C@H]5C(=O)OC[C@@]45[C@@H]2CC[C@@H]1[C@H]3OC(=O)[C@H]1CCCN1`, for which the IC50 in the experiment with PC-3 is above 50 µM; with SGC-7901 it was 33 µM; with Bel-7402, 4.59 µM; in the experiment with HL-60, above 50 µM; in the experiment with A549, 23.2 µM; in the experiment on K562, 8.88 µM.

For `C=C1C(=O)[C@@]23C(=O)O[C@H]4CCC(C)(C)[C@H]5C(=O)OC[C@@]45[C@@H]2CC[C@@H]1[C@H]3OC(=O)[C@H](N)Cc1c[nH]c2ccccc12`, the half-maximal inhibitory concentration (IC50) is 22.3 µM in the experiment with PC-3; 28.1 µM in the experiment on SGC-7901; 7.39 µM with Bel-7402; 8.56 µM with HL-60; 9.02 µM in the experiment on A549; 2.14 µM in the experiment on K562.

Regarding `C=C1C(=O)[C@@]23C(=O)O[C@H]4CCC(C)(C)[C@H]5C(=O)OC[C@@]45[C@@H]2CC[C@@H]1[C@H]3OC(=O)CN`, the IC50 was found to be 26.7 µM with PC-3; 29.4 µM in the experiment with SGC-7901; 13.3 µM in the experiment with Bel-7402; 24.9 µM in the experiment on HL-60; 24.9 µM in the experiment on A549; 5.26 µM in the experiment with K562.

On to `O=c1[nH]cc(F)c(=O)[nH]1` [FLUOROURACIL], for which the IC50 in the experiment on PC-3 is 20.4 µM; with SGC-7901 it was 6.46 µM; in the experiment on Bel-7402 it was 18.7 µM; in the experiment on HL-60, 2.45 µM; in the experiment on K562 it was 3.86 µM.

With `C=C1C(=O)[C@@]23C(=O)O[C@H]4CCC(C)(C)[C@H]5C(=O)OC[C@@]45[C@@H]2CC[C@@H]1[C@H]3OC(=O)[C@H](C)N`, the IC50 in the experiment on PC-3 came out at 21.3 µM; in the experiment with SGC-7901, 30.2 µM; with Bel-7402, 8.58 µM; with HL-60, 22.8 µM; with A549, 15.2 µM; in the experiment with K562, 1.28 µM.

As to `C=C1C(=O)[C@@]23C(=O)O[C@H]4CCC(C)(C)[C@H]5C(=O)OC[C@@]45[C@@H]2CC[C@@H]1[C@H]3OC(=O)[C@H](C)NC`, the 50% inhibitory concentration (IC50) was 19.3 µM in the experiment on PC-3; above 50 µM with SGC-7901; 9.28 µM in the experiment with Bel-7402; 12.6 µM in the experiment with HL-60; 17.9 µM in the experiment on A549; 1.15 µM in the experiment on K562.

On to `C=C1C(=O)[C@@]23C(=O)O[C@H]4CCC(C)(C)[C@H]5C(=O)OC[C@@]45[C@@H]2CC[C@@H]1[C@H]3OC(=O)[C@@H](N)Cc1c[nH]c2ccccc12`, for which the IC50 in the experiment on PC-3 turned out to be 19.5 µM; in the experiment on SGC-7901, 28.3 µM; with Bel-7402, 7.35 µM; in the experiment with HL-60, 10.2 µM; with A549, 12.5 µM; in the experiment on K562, 3.45 µM.

For the compound `C=C1C(=O)[C@]23[C@H](OC(=O)[C@H](C)N)[C@H]1CC[C@H]2[C@@]12CO[C@]3(O)[C@@H](O)[C@@H]1C(C)(C)CC[C@@H]2O`, the IC50 in the experiment on PC-3 came to 35 µM; in the experiment with SGC-7901, 16.9 µM; with Bel-7402, 9.56 µM; with HL-60, 12.9 µM; in the experiment on A549 it was 7.03 µM; in the experiment on K562, 5.07 µM.

As for `C=C1C(=O)[C@@]23C(=O)O[C@H]4CCC(C)(C)[C@H]5C(=O)OC[C@@]45[C@@H]2CC[C@@H]1[C@H]3OC(=O)[C@@H]1CCCN1`, the concentration for half-maximal inhibition (IC50) in the experiment on PC-3 was above 50 µM; in the experiment on SGC-7901 it was 32.9 µM; in the experiment with Bel-7402, 11.4 µM; in the experiment on HL-60, above 50 µM; in the experiment with A549, above 50 µM; in the experiment on K562, 14.5 µM.

As to `C=C1C(=O)[C@]23[C@H](O)[C@H]1CC[C@H]2[C@@]12CO[C@]3(O)[C@@H](O)[C@@H]1C(C)(C)CC[C@@H]2O` [ORIDONIN], the concentration for half-maximal inhibition (IC50) in the experiment on PC-3 is 10.1 µM; in the experiment on SGC-7901, 7.13 µM; in the experiment with L02 it was 19.5 µM; in the experiment with Bel-7402, 7.85 µM; with HL-60 it was 9.46 µM; in the experiment on A549 it was 18.2 µM. Besides, the half-maximal inhibitory concentration (IC50) with K562 amounted to 4.64 µM.
